# According to ChEMBL document CHEMBL1136837, “Unified QSAR approach to antimicrobials. 4. Multi-target QSAR modeling and comparative multi-distance study of the giant components of antiviral drug-drug complex networks” (Bioorg Med Chem, 2009):
# pIC50: −log10 of the molar value.
# System: Human immunodeficiency virus 1
# Assay: Antiviral activity against HIV1
# Format: functional, organism-based
row,SMILES,pIC50
1,O=C(c1cccc(Cc2ccccc2)c1)c1ncc2cccnc2c1O,7.40
2,Nc1nc2c(ncn2C2C=CC(OCP(=O)(O)OP(=O)(O)C(Br)(Br)P(=O)(O)O)C2)c(=O)[nH]1 (stereo not drawn),3.70
3,Cn1cc(C(=O)/C=C(/O)C(=O)O)c2ccccc21,4.43
4,Cc1cccc(C)c1C(=O)N1CCC(C)(N2CCC(Cc3ccc(Cl)cc3)CC2)CC1,7.64
5,Cc1cn([C@@H]2S[C@H](CO)C=C2F)c(=O)nc1O,4.03
6,O=C(O)c1ccc2ccc(/C=C/c3cccnc3)nc2c1O,4.00
7,NNC(=O)c1[nH]c2ccc(Cl)cc2c1Sc1ccc(Cl)cc1,5.00
8,Cc1cn([C@H]2S[C@@H](CO)C=C2F)c(=O)[nH]c1=O,4.00
9,Nc1nc2c(ncn2C2C=CC(OCP(=O)(O)OP(=O)(O)OP(=O)(O)OP(=O)(O)COC3C=CC(n4cnc5c(N)ncnc54)C3)C2)c(=O)[nH]1 (stereo not drawn),6.15
10,O=Cc1c(Cl)n([C@@H]2O[C@H](CF)[C@@H](O)[C@H]2O)c2cc(Cl)c(Cl)cc12,4.70
11,NC(=O)c1[nH]c2ccc(Cl)cc2c1Sc1ccc(Cl)cc1,5.51
12,Cc1cn([C@H]2O[C@H](CO)C=C2F)c(=O)nc1N,4.00
13,COc1ccc(CC2CCN(C3(C)CCN(C(=O)c4c(C)cccc4C)CC3)CC2)cc1,7.59
14,Cc1cn([C@@H]2CC(F)(F)[C@H](CO)O2)c(=O)nc1O,4.00
15,O=C1CSC(c2c(Cl)cccc2Cl)N1c1cccnc1 (stereo not drawn),4.02
16,COC[C@@H](c1ccc(C(F)(F)F)cc1)N1CCN(C2(C)CCN(C(=O)c3c(C)ncnc3C)CC2)C[C@@H]1C [VICRIVIROC],9.28
17,Cc1cc(C)nc(N2C(=O)CSC2c2c(F)cccc2F)c1 (stereo not drawn),7.23
18,CCOC(=O)c1cc2ccccc2n1S(=O)(=O)c1ccccc1[N+](=O)[O-],3.70
19,Nc1nc2c(ncn2[C@@H]2S[C@H](CO)C=C2F)c(=O)[nH]1,4.09
20,CC(c1cc(=O)[nH]c(SC2CCCC2)n1)c1c(F)cccc1F (stereo not drawn),7.52
21,Nc1ncnc2c1ncn2C1C=CC(OCP(=O)(O)OP(=O)(O)C(Br)(Br)P(=O)(O)O)C1 (stereo not drawn),3.00
22,Cc1c(O)cccc1C(=O)N[C@@H](CSc1ccccc1)[C@H](O)CN1C[C@H]2CCCC[C@H]2C[C@H]1C(=O)NC(C)(C)C,7.57
23,Cc1cccc(S(=O)(=O)c2c(C(N)=O)[nH]c3ccc(Cl)cc23)c1,9.00
24,Cc1cccnc1N1C(=O)CSC1c1c(F)cccc1F (stereo not drawn),4.27

row,SMILES,pIC50
1,CCOC(=O)c1[nH]c2ccccc2c1S(=O)(=O)c1cc(Cl)ccc1N,3.70
2,O=c1ccn([C@H]2S[C@@H](CO)C=C2F)c(=O)[nH]1,4.00
3,O=c1nc(O)ccn1[C@@H]1C=C(F)[C@H](CO)O1,4.00
4,O=C(/C=C(\O)c1nnn[nH]1)c1c[nH]c2ccc(F)cc12,5.74
5,O=C(O)/C(O)=C/C(=O)c1ccc(C(=O)/C=C(\O)C(=O)O)cc1,5.89
6,O=C1CSC(c2c(F)cccc2Cl)N1c1cccc(Br)n1 (stereo not drawn),7.19
7,O=C1CSC(c2c(F)cccc2F)N1c1cccc(Br)n1 (stereo not drawn),7.52
8,Cc1cccc(C)c1C(=O)N1CCC(C)(N2CCC(Cc3ccc(Br)cc3)CC2)CC1,8.00
9,CC(C)C[C@H](NC(=O)[C@H](Cc1ccccc1)C[C@H](O)[C@@H](CC(=O)OC(C)(C)C)Cc1ccccc1)C(=O)N[C@@H](Cc1ccccc1)C(N)=O,6.22
10,C=C(C)[C@@H]1CC[C@]2(C(=O)NCCCCCCCCCCC(=O)N[C@@H](CC(C)C)C(=O)OC)CC[C@]3(C)[C@H](CC[C@@H]4[C@@]5(C)CC[C@H](O)C(C)(C)[C@@H]5CC[C@]43C)[C@@H]12,4.49
11,COc1ccc2[nH]cc(C(=O)/C=C(\O)c3nnn[nH]3)c2c1,4.40
12,Nc1nc(O)c2ncn([C@@H]3CC(F)(F)[C@H](CO)O3)c2n1,4.00
13,O=C(O)/C(O)=C/C(=O)c1cccc(OCc2ccccc2)c1,6.46
14,COc1ccc(Cn2nnnc2/C(O)=C/C(=O)c2c[nH]c3ccccc23)cc1,4.00
15,C[C@H]1O[C@@H](n2c(Cl)c(C=O)c3cc(Cl)c(Cl)cc32)[C@H](O)[C@@H]1O,4.70
16,Nc1ccn([C@@H]2CC(F)(F)[C@H](CO)O2)c(=O)n1,4.94
17,N#Cc1c(Cl)n([C@H]2C[C@H](O)[C@@H](CO)O2)c2cc(Cl)c(Cl)cc12,4.46
18,C=C(C)[C@@H]1CC[C@]2(C(=O)NCCCCCCCCCCC(=O)N[C@@H](CC(C)C)C(=O)O)CC[C@]3(C)[C@H](CC[C@@H]4[C@@]5(C)CC[C@H](O)C(C)(C)[C@@H]5CC[C@]43C)[C@@H]12,6.34
19,Cc1ncc([N+](=O)[O-])n1CCOC(c1ccccc1)c1ccc(Cl)c(Cl)c1 (stereo not drawn),4.01
20,NNC(=O)c1[nH]c2ccc(Cl)cc2c1Sc1ccc(F)cc1,5.30
21,NNC(=O)c1cc2ccccc2n1S(=O)(=O)c1ccccc1,3.70
22,C=C(C)[C@@H]1CC[C@]2(C(=O)NCCCCCCCC(=O)N[C@@H](CC(C)C)[C@H](O)CC(=O)OCc3ccccc3)CC[C@]3(C)[C@H](CC[C@@H]4[C@@]5(C)CC[C@H](OC(C)=O)C(C)(C)[C@@H]5CC[C@]43C)[C@@H]12,4.55
23,O=C(O)/C(O)=C/C(=O)c1ccnc2ccccc12,4.00
24,CC1(C)Oc2ccc3cc(CN)c(=O)oc3c2[C@@H](OC(=O)[C@@]23CC[C@](C)(C(=O)O2)C3(C)C)[C@H]1OC(=O)[C@@]12CC[C@](C)(C(=O)O1)C2(C)C,4.81

row,SMILES,pIC50
1,C=C(C)[C@@H]1CC[C@]2(C(=O)NCCCCCCCC(=O)N[C@@H](CC(C)C)C(=O)O)CC[C@]3(C)[C@H](CC[C@@H]4[C@@]5(C)CC[C@H](O)C(C)(C)[C@@H]5CC[C@]43C)[C@@H]12,5.86
2,Cc1ccnc2c1NC(=O)c1cccnc1N2C1CC1 [NEVIRAPINE],7.22
3,Fc1cccc(F)c1Cn1c(-c2ccccc2)nc2ccccc21,7.22
4,Nc1ncnc2c1ncn2C1C=CC(OCP(=O)(O)OP(=O)(O)OP(=O)(O)O)C1 (stereo not drawn),6.70
5,O=C(OC(C(=O)O)C(OC(=O)c1ccsc1)C(=O)O)c1ccsc1 (stereo not drawn),5.00
6,Cc1c(Cc2c(F)cccc2F)nc(SC2CCCC2)[nH]c1=O,7.10
7,Cc1ncc([N+](=O)[O-])n1CCOC(c1ccccc1)c1ccccc1[N+](=O)[O-] (stereo not drawn),6.22
8,Cc1ccc(S(=O)(=O)c2c(C(N)=O)[nH]c3ccc(Cl)cc23)cc1,8.52
9,NC(=O)c1cc2ccccc2n1S(=O)(=O)c1ccccc1,4.82
10,O=C(O)/C(O)=C/C(=O)c1c[nH]c2ccc(Cl)cc12,6.28
11,O=C(OC(C(=O)O)C(OC(=O)c1cccs1)C(=O)O)c1cccs1 (stereo not drawn),5.00
12,NC(=O)c1[nH]c2ccc(Cl)cc2c1S(=O)(=O)c1ccccc1 [L-737126],5.70
13,Cc1c(C(C)c2c(F)cccc2F)nc(SC2CCCC2)[nH]c1=O (stereo not drawn),8.30
14,NC(=O)O[C@@H]1Cc2ccccc2C1C1=C(O)[C@](Cc2ccccc2)(C[C@H](O)[C@H](Cc2ccccc2)NC(=O)O[C@H]2CCOC2)N=C1 (stereo partly drawn),5.70
15,Cc1cn([C@H]2C=C[C@@](C#CCl)(CO)O2)c(=O)[nH]c1=O,4.00
16,OC[C@@H]1O[C@H](n2cnc3c(O)ncnc32)CC1(F)F,4.00
17,NNC(=O)c1[nH]c2ccc(Cl)cc2c1S(=O)(=O)c1ccccc1,8.00
18,Cc1ncc([N+](=O)[O-])n1CCOC(c1ccccc1)c1cccc(-n2cccc2)c1 (stereo not drawn),4.85
19,COc1ccnc2[nH]cc(C(=O)C(=O)N3CCN(C(=O)c4ccccc4)C[C@H]3C)c12,9.07
20,CCOC(=O)c1cc2ccccc2n1S(=O)(=O)c1cc(Cl)ccc1[N+](=O)[O-],4.00
21,Nc1nc(NC2CC2)c2ncn([C@H]3C=C[C@@H](CO)O3)c2n1,5.07
22,CC(C)Nc1cccnc1N1CCN(C(=O)c2cc3cc(NS(C)(=O)=O)ccc3[nH]2)CC1 [DELAVIRDINE],5.27
23,NNC(=O)c1[nH]c2ccc(Cl)cc2c1Sc1cc(Cl)ccc1N,4.89
24,CCOC(=O)c1cc2ccccc2n1S(=O)(=O)c1ccccc1,3.70

row,SMILES,pIC50
1,CC(=O)OCc1c(C)c2ccc3c(c2oc1=O)[C@@H](OC(=O)[C@@]12CC[C@](C)(C(=O)O1)C2(C)C)[C@@H](OC(=O)[C@@]12CC[C@](C)(C(=O)O1)C2(C)C)C(C)(C)O3,4.83
2,Cc1c(Cc2c(F)cccc2F)nc(NC2CCCC2)[nH]c1=O,7.52
3,CO/N=C(\c1ccc(Br)cc1)C1CCN(C2(C)CCN(C(=O)c3c(C)cccc3O)CC2)CC1,8.40
4,Cc1ncc([N+](=O)[O-])n1CCOC(c1ccccc1)c1ccc([N+](=O)[O-])cc1 (stereo not drawn),5.30
5,OC[C@@H]1O[C@H](n2cnc3c(O)ncnc32)C=C1F,4.00
6,O=C(/C=C(\O)c1nnn[nH]1)c1c[nH]c2ccccc12,5.72
7,Cc1cc(Br)c(Nc2ccnc(Nc3ccc(C#N)cc3)n2)c(Br)c1,9.20
8,CC(=O)c1c(Cl)n([C@H]2C[C@H](O)[C@@H](CO)O2)c2cc(Cl)c(Cl)cc12,5.10
9,CCN(CC)Cc1cc2ccc3c(c2oc1=O)[C@@H](OC(=O)[C@@]12CC[C@](C)(C(=O)O1)C2(C)C)[C@@H](OC(=O)[C@@]12CC[C@](C)(C(=O)O1)C2(C)C)C(C)(C)O3,4.85
10,Cc1c(CBr)c(=O)oc2c3c(ccc12)OC(C)(C)[C@H](OC(=O)[C@@]12CC[C@](C)(C(=O)O1)C2(C)C)[C@@H]3OC(=O)[C@@]12CC[C@](C)(C(=O)O1)C2(C)C,4.68
11,CCO/N=C(\c1ccc(Br)cc1)C1CCN(C2(C)CCN(C(=O)c3cccnc3C)CC2)CC1,8.85
12,Nc1ncnc2c1ncn2[C@H]1C=C(F)[C@H](CO)O1,4.00
13,C=CC[C@@]1(CO)C=C[C@H](n2cc(C)c(=O)[nH]c2=O)O1,4.00
14,O=C(O)/C(O)=C/C(=O)c1cc(OCc2ccccc2)cc(OCc2ccccc2)c1,6.32
15,Nc1ncnc2c1ncn2C1C=CC(OCP(=O)(O)OP(=O)(O)C(F)(F)P(=O)(O)OP(=O)(O)COC2C=CC(n3cnc4c(N)ncnc43)C2)C1 (stereo not drawn),4.70
16,Cc1cn([C@H]2C=C[C@@](C#N)(CO)O2)c(=O)[nH]c1=O,5.15
17,Nc1nc(=O)n([C@H]2O[C@H](CO)C=C2F)cc1F,4.00
18,O=C1CSC(c2c(F)cccc2F)N1c1ccc(Cl)cn1 (stereo not drawn),5.14
19,COC(=O)c1[nH]c(-c2ccc3c(n2)C(=O)C(NC(C)=O)=CC3=O)c2nc3ccccc3c-2c1C,4.82
20,CCCCCCCCOC(=O)c1cc2c([nH]c3ccccc32)c(-c2ccc3c(n2)C(=O)C(NC(C)=O)=CC3=O)n1,5.15
21,N#Cc1c(Cl)n([C@@H]2O[C@H](CF)[C@@H](O)[C@H]2O)c2cc(Cl)c(Cl)cc12,4.40
